Assay results: patent US7847123B2, “Antimicrobial compositions” (Evonik Goldschmidt GmbH, priority 2006, dated 2010)

Legend:
[1] = system: C. xerosis; assay: Antimicrobial effect: germ count over time in 0.3% by weight aqueous solution of test substance; format: cell-based, Corynebacterium xerosis; conditions: 0.3% by weight in water, 37° C.; for germ count CFU/ml, 0 hours: directly after addition (0 h)
Protocol: (§1) 20 ml of a 0.3% by weight solution of the test substance listed below in the table in water was inoculated with 200 μl of a fresh 48 hour culture of C. xerosis or S. epidermidis and incubated for three days at 37° C. Directly after the addition, as well as after 1, 3, 24 and 48 hours, samples, each of 1 ml, were taken and the germ count was determined.

[2] = system: S. epidermidis; assay: as above; format: cell-based, Staphylococcus epidermidis; conditions: 0.3% by weight in water, 37° C.; for germ count CFU/ml, 0 hours: directly after addition (0 h)
Protocol: as §1

[3] = system: S. epidermidis; assay: pH dependency of the antimicrobial effect: germ count in buffered solutions; format: cell-based, Staphylococcus epidermidis
Protocol: as §1
(§2) The antimicrobial effect of octyllactamide in buffered solutions was tested correspondingly to example 8 at various pH values.

[4] = system: C. xerosis; assay: as above; format: cell-based, Corynebacterium xerosis
Protocol: as §1, §2

CCCCCCNC(=O)C(C)O (stereo not shown) [Hexyllactamide, N-Hexyllactamide]
germ count CFU/ml, 1 hour [1]: 5.5E+5 CFU/ml
germ count CFU/ml, 3 hours [1]: 2.6E+3 CFU/ml
germ count CFU/ml, 24 hours [1]: <2.0E+2 CFU/ml
germ count CFU/ml, 48 hours [1]: <2.0E+2 CFU/ml
germ count CFU/ml, 0 hours [1]: 2.5E+6 CFU/ml
germ count CFU/ml, 1 hour [2]: 1.7E+6 CFU/ml
germ count CFU/ml, 3 hours [2]: 7.1E+5 CFU/ml
germ count CFU/ml, 24 hours [2]: <2.0E+2 CFU/ml
germ count CFU/ml, 48 hours [2]: <2.0E+2 CFU/ml
germ count CFU/ml, 0 hours [2]: 8.6E+6 CFU/ml

PEG-3-octyllactamide [Octyl-PEG-3-lactamide]
germ count CFU/ml, 1 hour [1]: 6.3E+4 CFU/ml
germ count CFU/ml, 3 hours [1]: 3.7E+3 CFU/ml
germ count CFU/ml, 24 hours [1]: <2.0E+2 CFU/ml
germ count CFU/ml, 48 hours [1]: <2.0E+2 CFU/ml
germ count CFU/ml, 0 hours [1]: 9.1E+5 CFU/ml
germ count CFU/ml, 1 hour [2]: 4.1E+6 CFU/ml
germ count CFU/ml, 3 hours [2]: 3.1E+6 CFU/ml
germ count CFU/ml, 24 hours [2]: <2.0E+2 CFU/ml
germ count CFU/ml, 48 hours [2]: <2.0E+2 CFU/ml
germ count CFU/ml, 0 hours [2]: 1.9E+7 CFU/ml

PEG-10-octyllactamide [Octyl-PEG-10-lactamide]
germ count CFU/ml, 1 hour [1]: 4.5E+5 CFU/ml
germ count CFU/ml, 3 hours [1]: 1.8E+5 CFU/ml
germ count CFU/ml, 24 hours [1]: 1.6E+3 CFU/ml
germ count CFU/ml, 48 hours [1]: <2.0E+2 CFU/ml
germ count CFU/ml, 0 hours [1]: 9.1E+5 CFU/ml
germ count CFU/ml, 1 hour [2]: 2.3E+6 CFU/ml
germ count CFU/ml, 3 hours [2]: 9.3E+6 CFU/ml
germ count CFU/ml, 24 hours [2]: 8.1E+4 CFU/ml
germ count CFU/ml, 48 hours [2]: <2.0E+2 CFU/ml
germ count CFU/ml, 0 hours [2]: 1.9E+7 CFU/ml

CCCCCCCCNC(=O)C(C)O (stereo not shown) [Octyllactamide, N-octyllactamide]
germ count CFU/ml, 1 hour [1]: 1.5E+4 CFU/ml
germ count CFU/ml, 3 hours [1]: <2.0E+2 CFU/ml
germ count CFU/ml, 24 hours [1]: <2.0E+2 CFU/ml
germ count CFU/ml, 48 hours [1]: <2.0E+2 CFU/ml
germ count CFU/ml, 0 hours [1]: 9.1E+5 CFU/ml
germ count CFU/ml, 0 hours ([3]; buffered solution pH 4.5, 0 h): 3.7E+6 CFU/ml
germ count CFU/ml, 1 hour ([3]; buffered solution pH 4.5, 1 h): 2.1E+6 CFU/ml
germ count CFU/ml, 3 hours ([3]; buffered solution pH 4.5, 3 h): 7.9E+4 CFU/ml
germ count CFU/ml, 24 hours ([3]; buffered solution pH 4.5, 24 h): <2.0E+2 CFU/ml
germ count CFU/ml, 48 hours ([3]; buffered solution pH 4.5, 48 h): <2.0E+2 CFU/ml
germ count CFU/ml, 0 hours ([3]; buffered solution pH 5.5, 0 h): 3.7E+6 CFU/ml
germ count CFU/ml, 1 hour ([3]; buffered solution pH 5.5, 1 h): 1.7E+6 CFU/ml
germ count CFU/ml, 3 hours ([3]; buffered solution pH 5.5, 3 h): 4.7E+3 CFU/ml
germ count CFU/ml, 24 hours ([3]; buffered solution pH 5.5, 24 h): <2.0E+2 CFU/ml
germ count CFU/ml, 48 hours ([3]; buffered solution pH 5.5, 48 h): <2.0E+2 CFU/ml
germ count CFU/ml, 0 hours ([3]; buffered solution pH 6.9, 0 h): 3.1E+6 CFU/ml
germ count CFU/ml, 1 hour ([3]; buffered solution pH 6.9, 1 h): 1.5E+6 CFU/ml
germ count CFU/ml, 3 hours ([3]; buffered solution pH 6.9, 3 h): 5.7E+4 CFU/ml
germ count CFU/ml, 24 hours ([3]; buffered solution pH 6.9, 24 h): <2.0E+2 CFU/ml
germ count CFU/ml, 48 hours ([3]; buffered solution pH 6.9, 48 h): <2.0E+2 CFU/ml
germ count CFU/ml, 1 hour [2]: 3.7E+6 CFU/ml
germ count CFU/ml, 3 hours [2]: 3.0E+6 CFU/ml
germ count CFU/ml, 24 hours [2]: 2.3E+6 CFU/ml
germ count CFU/ml, 48 hours [2]: 8.5E+5 CFU/ml
germ count CFU/ml, 0 hours [2]: 1.9E+7 CFU/ml
germ count CFU/ml, 0 hours ([4]; buffered solution pH 4.5, 0 h): 1.0E+6 CFU/ml
germ count CFU/ml, 1 hour ([4]; buffered solution pH 4.5, 1 h): 5.5E+4 CFU/ml
germ count CFU/ml, 3 hours ([4]; buffered solution pH 4.5, 3 h): <2.0E+2 CFU/ml
germ count CFU/ml, 24 hours ([4]; buffered solution pH 4.5, 24 h): <2.0E+2 CFU/ml
germ count CFU/ml, 48 hours ([4]; buffered solution pH 4.5, 48 h): <2.0E+2 CFU/ml
germ count CFU/ml, 0 hours ([4]; buffered solution pH 5.5, 0 h): 1.0E+6 CFU/ml
germ count CFU/ml, 1 hour ([4]; buffered solution pH 5.5, 1 h): 1.8E+5 CFU/ml
germ count CFU/ml, 3 hours ([4]; buffered solution pH 5.5, 3 h): 3.5E+4 CFU/ml
germ count CFU/ml, 24 hours ([4]; buffered solution pH 5.5, 24 h): <2.0E+2 CFU/ml
germ count CFU/ml, 48 hours ([4]; buffered solution pH 5.5, 48 h): <2.0E+2 CFU/ml
germ count CFU/ml, 0 hours ([4]; buffered solution pH 6.9, 0 h): 7.3E+5 CFU/ml
germ count CFU/ml, 1 hour ([4]; buffered solution pH 6.9, 1 h): 3.3E+3 CFU/ml
germ count CFU/ml, 3 hours ([4]; buffered solution pH 6.9, 3 h): <2.0E+2 CFU/ml
germ count CFU/ml, 24 hours ([4]; buffered solution pH 6.9, 24 h): <2.0E+2 CFU/ml
germ count CFU/ml, 48 hours ([4]; buffered solution pH 6.9, 48 h): <2.0E+2 CFU/ml
